{"source": "patent US20240092835A1", "about": "“NOVEL PEPTIDES CAPABLE OF ALTERING NK CELL ACTIVITY” (Massachusetts Institute of Technology, priority 2022, published 2024)", "assay_type_in_all_cases": "cell-based, human", "key": {"[1]": {"test_system": "NKG2A−/NKG2C+ NK cells", "assay": "NK cell activation markers in NKG2A-/NKG2C+ NK cells incubated with peptide and K562 expressing HLA-E (activation)", "details": "NKG2A-/NKG2C+ NK cells, K562/HLA-E", "experimental": "(§1) A human immortalized myelogenous leukemia cell line (K562), which expresses HLA-E was incubated with novel peptides (Table 1) derived from the human proteome or human cytomegalovirus proteome. […] Controls assessments were also performed using NKG2A−/NKG2C− cells (Tables 10-13). Inhibition was indicated by a decrease in percent cells positive for cell surface markers, while activation was indicated by an increase in percent cells positive for cell surface markers."}, "[2]": {"test_system": "NKG2A+/NKG2C− NK cells", "assay": "NK cell activation markers in NKG2A+/NKG2C- NK cells incubated with peptide and K562 expressing HLA-E (inhibition)", "details": "NKG2A+/NKG2C- NK cells, K562/HLA-E", "experimental": "as §1"}, "[3]": {"test_system": "NKG2A−/NKG2C− NK cells", "assay": "NK cell activation markers in control NKG2A-/NKG2C- NK cells incubated with peptide and K562 expressing HLA-E", "experimental": "as §1"}}}
{"sequence": "VMAPQSLLL [VMAPQSLLL (PQS), negative control peptide, reference compound]", "values": [{"measurement": "percentage of CCL3+ NK cells", "setting": "[1]; Trial 1", "value": 47, "unit": "%"}, {"measurement": "percentage of CD107+ NK cells", "setting": "[1]; Trial 1", "value": 25.2, "unit": "%"}, {"measurement": "percentage of IFNG+ NK cells", "setting": "[1]; Trial 1", "value": 10.6, "unit": "%"}, {"measurement": "percentage of TNF+ NK cells", "setting": "[1]; Trial 1", "value": 4.96, "unit": "%"}, {"measurement": "percentage of CCL3+ NK cells", "setting": "[1]; Trial 2", "value": 55.3, "unit": "%"}, {"measurement": "percentage of CD107+ NK cells", "setting": "[1]; Trial 2", "value": 32.8, "unit": "%"}, {"measurement": "percentage of IFNG+ NK cells", "setting": "[1]; Trial 2", "value": 12.7, "unit": "%"}, {"measurement": "percentage of TNF+ NK cells", "setting": "[1]; Trial 2", "value": 9.31, "unit": "%"}, {"measurement": "percentage of CCL3+ NK cells", "setting": "[1]; Trial 3", "value": 69.4, "unit": "%"}, {"measurement": "percentage of CD107+ NK cells", "setting": "[1]; Trial 3", "value": 58.6, "unit": "%"}, {"measurement": "percentage of IFNG+ NK cells", "setting": "[1]; Trial 3", "value": 40.7, "unit": "%"}, {"measurement": "percentage of TNF+ NK cells", "setting": "[1]; Trial 3", "value": 31.2, "unit": "%"}, {"measurement": "percentage of CCL3+ NK cells", "setting": "[1]; Trial 4", "value": 58.6, "unit": "%"}, {"measurement": "percentage of CD107+ NK cells", "setting": "[1]; Trial 4", "value": 53.6, "unit": "%"}, {"measurement": "percentage of IFNG+ NK cells", "setting": "[1]; Trial 4", "value": 35.6, "unit": "%"}, {"measurement": "percentage of TNF+ NK cells", "setting": "[1]; Trial 4", "value": 25.7, "unit": "%"}, {"measurement": "percentage of CCL3+ NK cells", "setting": "[1]; Trial 5", "value": 55.4, "unit": "%"}, {"measurement": "percentage of CD107+ NK cells", "setting": "[1]; Trial 5", "value": 43, "unit": "%"}, {"measurement": "percentage of IFNG+ NK cells", "setting": "[1]; Trial 5", "value": 19.9, "unit": "%"}, {"measurement": "percentage of TNF+ NK cells", "setting": "[1]; Trial 5", "value": 14.7, "unit": "%"}, {"measurement": "percentage of CCL3+ NK cells", "setting": "[1]; Trial 6", "value": 32.7, "unit": "%"}, {"measurement": "percentage of CD107+ NK cells", "setting": "[1]; Trial 6", "value": 22.3, "unit": "%"}, {"measurement": "percentage of IFNG+ NK cells", "setting": "[1]; Trial 6", "value": 10.3, "unit": "%"}, {"measurement": "percentage of TNF+ NK cells", "setting": "[1]; Trial 6", "value": 5.08, "unit": "%"}, {"measurement": "percentage of CCL3+ NK cells", "setting": "[2]; Trial 1", "value": 49.8, "unit": "%"}, {"measurement": "percentage of CD107a+ NK cells", "setting": "[2]; Trial 1", "value": 29.1, "unit": "%"}, {"measurement": "percentage of IFNG+ NK cells", "setting": "[2]; Trial 1", "value": 10.1, "unit": "%"}, {"measurement": "percentage of TNF+ NK cells", "setting": "[2]; Trial 1", "value": 2.95, "unit": "%"}, {"measurement": "percentage of CCL3+ NK cells", "setting": "[2]; Trial 2", "value": 70.6, "unit": "%"}, {"measurement": "percentage of CD107a+ NK cells", "setting": "[2]; Trial 2", "value": 47.4, "unit": "%"}, {"measurement": "percentage of IFNG+ NK cells", "setting": "[2]; Trial 2", "value": 27.3, "unit": "%"}, {"measurement": "percentage of TNF+ NK cells", "setting": "[2]; Trial 2", "value": 13.3, "unit": "%"}, {"measurement": "percentage of CCL3+ NK cells", "setting": "[2]; Trial 3", "value": 58.2, "unit": "%"}, {"measurement": "percentage of CD107a+ NK cells", "setting": "[2]; Trial 3", "value": 46.5, "unit": "%"}, {"measurement": "percentage of IFNG+ NK cells", "setting": "[2]; Trial 3", "value": 35.1, "unit": "%"}, {"measurement": "percentage of TNF+ NK cells", "setting": "[2]; Trial 3", "value": 18.8, "unit": "%"}, {"measurement": "percentage of CCL3+ NK cells", "setting": "[2]; Trial 4", "value": 50.7, "unit": "%"}, {"measurement": "percentage of CD107a+ NK cells", "setting": "[2]; Trial 4", "value": 40.7, "unit": "%"}, {"measurement": "percentage of IFNG+ NK cells", "setting": "[2]; Trial 4", "value": 23.1, "unit": "%"}, {"measurement": "percentage of TNF+ NK cells", "setting": "[2]; Trial 4", "value": 11.6, "unit": "%"}, {"measurement": "percentage of CCL3+ NK cells", "setting": "[2]; Trial 5", "value": 47.7, "unit": "%"}, {"measurement": "percentage of CD107a+ NK cells", "setting": "[2]; Trial 5", "value": 30.1, "unit": "%"}, {"measurement": "percentage of IFNG+ NK cells", "setting": "[2]; Trial 5", "value": 14.1, "unit": "%"}, {"measurement": "percentage of TNF+ NK cells", "setting": "[2]; Trial 5", "value": 6.1, "unit": "%"}, {"measurement": "percentage of CCL3+ NK cells", "setting": "[2]; Trial 6", "value": 31.3, "unit": "%"}, {"measurement": "percentage of CD107a+ NK cells", "setting": "[2]; Trial 6", "value": 24.4, "unit": "%"}, {"measurement": "percentage of IFNG+ NK cells", "setting": "[2]; Trial 6", "value": 8.37, "unit": "%"}, {"measurement": "percentage of TNF+ NK cells", "setting": "[2]; Trial 6", "value": 4.14, "unit": "%"}, {"measurement": "percentage CCL3+ NK cells", "setting": "[3]; Trial 1", "value": 35.1, "unit": "%"}, {"measurement": "percentage CD107+ NK cells", "setting": "[3]; Trial 1", "value": 24.1, "unit": "%"}, {"measurement": "percentage TNF+ NK cells", "setting": "[3]; Trial 1", "value": 3.46, "unit": "%"}, {"measurement": "percentage of IFNG+ NK cells", "setting": "[3]; Trial 1", "value": 14, "unit": "%"}, {"measurement": "percentage CCL3+ NK cells", "setting": "[3]; Trial 2", "value": 57.7, "unit": "%"}, {"measurement": "percentage CD107+ NK cells", "setting": "[3]; Trial 2", "value": 37.9, "unit": "%"}, {"measurement": "percentage TNF+ NK cells", "setting": "[3]; Trial 2", "value": 9.07, "unit": "%"}, {"measurement": "percentage of IFNG+ NK cells", "setting": "[3]; Trial 2", "value": 27.9, "unit": "%"}, {"measurement": "percentage CCL3+ NK cells", "setting": "[3]; Trial 3", "value": 59.4, "unit": "%"}, {"measurement": "percentage CD107+ NK cells", "setting": "[3]; Trial 3", "value": 53, "unit": "%"}, {"measurement": "percentage TNF+ NK cells", "setting": "[3]; Trial 3", "value": 22.6, "unit": "%"}, {"measurement": "percentage of IFNG+ NK cells", "setting": "[3]; Trial 3", "value": 48.3, "unit": "%"}, {"measurement": "percentage CCL3+ NK cells", "setting": "[3]; Trial 4", "value": 35, "unit": "%"}, {"measurement": "percentage CD107+ NK cells", "setting": "[3]; Trial 4", "value": 28, "unit": "%"}, {"measurement": "percentage TNF+ NK cells", "setting": "[3]; Trial 4", "value": 8.23, "unit": "%"}, {"measurement": "percentage of IFNG+ NK cells", "setting": "[3]; Trial 4", "value": 19, "unit": "%"}, {"measurement": "percentage CCL3+ NK cells", "setting": "[3]; Trial 5", "value": 34, "unit": "%"}, {"measurement": "percentage CD107+ NK cells", "setting": "[3]; Trial 5", "value": 24.4, "unit": "%"}, {"measurement": "percentage TNF+ NK cells", "setting": "[3]; Trial 5", "value": 8.67, "unit": "%"}, {"measurement": "percentage of IFNG+ NK cells", "setting": "[3]; Trial 5", "value": 18.6, "unit": "%"}, {"measurement": "percentage CCL3+ NK cells", "setting": "[3]; Trial 6", "value": 22.4, "unit": "%"}, {"measurement": "percentage CD107+ NK cells", "setting": "[3]; Trial 6", "value": 19.5, "unit": "%"}, {"measurement": "percentage TNF+ NK cells", "setting": "[3]; Trial 6", "value": 4.08, "unit": "%"}, {"measurement": "percentage of IFNG+ NK cells", "setting": "[3]; Trial 6", "value": 10, "unit": "%"}]}
